Assay results from ChEMBL document CHEMBL1143733, “Synthesis and structure-antituberculosis activity relationship of 1H-indole-2,3-dione derivatives” (Bioorg Med Chem, 2007).
In brackets after ≈: the same amount, converted by molar mass.

What was measured:
[1] = test system: Mycobacterium tuberculosis; assay: Growth inhibition of Mycobacterium tuberculosis H37Rv at 6.25 ug/mL by microplate alamar blue assay; type: functional; conditions: read-out: GI
[2] = test system: Mycobacterium tuberculosis; assay: Antituberculosis activity against Mycobacterium tuberculosis H37Rv by microplate alamar blue assay; type: functional
Vero = assay: Cytotoxicity against Vero cells; type: cell-based; conditions: Chlorocebus sabaeus

Row | SMILES | inhibition of growth at 6.25 µg/mL [1] [%] | MIC [2] [µg/mL] | IC50 (Vero) [µg/mL]
1 | CNC(=S)N/N=C1\C(=O)N(CN2CCOCC2)c2ccc([N+](=O)[O-])cc21 | 96 | > 6.25 | 7.61 (≈ 20.1 µM)
2 | O=C1/C(=N\NC(=S)Nc2ccc(Cl)cc2)c2cc(F)ccc2N1CN1CCCCC1 | 63 |  | 
3 | CCNC(=S)N/N=C1\C(=O)Nc2ccc(F)cc21 | 8 |  | 
4 | O=C1Nc2ccc([N+](=O)[O-])cc2/C1=N/N=C1/SCC(=O)N1c1ccccc1 | 0 |  | 
5 | C=CCN1C(=O)CS/C1=N/N=C1\C(=O)Nc2ccc([N+](=O)[O-])cc21 | 2 |  | 
6 | O=C1Nc2ccc([N+](=O)[O-])cc2/C1=N/NC(=S)Nc1ccc([N+](=O)[O-])cc1 | 2 |  | 
7 | O=C1Nc2ccc(F)cc2/C1=N/NC(=S)Nc1ccc(Cl)cc1 | 37 |  | 
8 | CC1S/C(=N/N=C2\C(=O)Nc3ccc([N+](=O)[O-])cc32)N(c2ccc(Cl)cc2)C1=O (configuration not stated) | 0 |  | 
9 | O=C1Nc2ccc(F)cc2/C1=N/NC(=S)NC1CCCCC1 | 39 |  | 
10 | CNC(=S)N/N=C1\C(=O)N(CN2CCCCC2)c2ccc(F)cc21 | 20 |  | 
11 | O=C1Nc2ccc([N+](=O)[O-])cc2/C1=N/NC(=S)NC1CCCCC1 | 90 | > 6.25 | 4.74 (≈ 13.6 µM)
12 | O=C1/C(=N\NC(=S)Nc2ccccc2)c2cc([N+](=O)[O-])ccc2N1CN1CCOCC1 | 93 | > 6.25 | 2.8 (≈ 6.36 µM)
13 | C=CCN1C(=O)C(C)S/C1=N/N=C1\C(=O)Nc2ccc([N+](=O)[O-])cc21 (configuration not stated) | 3 |  | 
14 | Cc1ccc(NC(=S)N/N=C2\C(=O)Nc3ccc([N+](=O)[O-])cc32)cc1 | 93 | 6.25 (≈ 17.6 µM) | 2.45 (≈ 6.89 µM)
15 | C=CCNC(=S)N/N=C1\C(=O)Nc2ccc([N+](=O)[O-])cc21 | 25 |  | 
16 | CCNC(=S)N/N=C1\C(=O)Nc2ccc([N+](=O)[O-])cc21 | 0 |  | 
17 | CCCCN1C(=O)C(C)S/C1=N/N=C1\C(=O)Nc2ccc([N+](=O)[O-])cc21 (configuration not stated) | 10 |  | 
18 | O=C1Nc2ccc([N+](=O)[O-])cc2/C1=N/N=C1/SCC(=O)N1c1ccc(Cl)cc1 | 0 |  | 
19 | Cc1ccc(NC(=S)N/N=C2\C(=O)N(CN3CCCCC3)c3ccc([N+](=O)[O-])cc32)cc1 | 88 |  | 
20 | CCCCNC(=S)N/N=C1\C(=O)Nc2ccc(F)cc21 | 16 |  | 
21 | CN1C(=O)CS/C1=N/N=C1\C(=O)Nc2ccc([N+](=O)[O-])cc21 | 0 |  | 
22 | O=C1/C(=N\NC(=S)Nc2ccc(Cl)cc2)c2cc(F)ccc2N1CN1CCOCC1 | 58 |  | 
23 | CC1S/C(=N/N=C2\C(=O)Nc3ccc([N+](=O)[O-])cc32)N(C2CCCCC2)C1=O (configuration not stated) | 28 |  | 

Row | SMILES | inhibition of growth at 6.25 µg/mL [1] [%] | MIC [2] [µg/mL] | IC50 (Vero) [µg/mL]
24 | CO[C@H]1/C=C/O[C@@]2(C)Oc3c(C)c(O)c4c(O)c(c(/C=N/N5CCN(C)CC5)c(O)c4c3C2=O)NC(=O)/C(C)=C\C=C\[C@H](C)[C@H](O)[C@@H](C)[C@@H](O)[C@@H](C)[C@H](OC(C)=O)[C@@H]1C [RIFAMPIN] | 97 | 0.125 (≈ 0.152 µM) | > 100
25 | CCCCNC(=S)N/N=C1\C(=O)N(CN2CCOCC2)c2ccc([N+](=O)[O-])cc21 | 30 |  | 
26 | CC1S/C(=N/N=C2\C(=O)Nc3ccc([N+](=O)[O-])cc32)N(c2ccc([N+](=O)[O-])cc2)C1=O (configuration not stated) | 9 |  | 
27 | O=C1/C(=N\NC(=S)Nc2ccc(F)cc2)c2cc(F)ccc2N1CN1CCCCC1 | 38 |  | 
28 | CCN1C(=O)CS/C1=N/N=C1\C(=O)Nc2ccc([N+](=O)[O-])cc21 | 0 |  | 
29 | O=C1Nc2ccc([N+](=O)[O-])cc2/C1=N/N=C1/SCC(=O)N1c1ccc(Br)cc1 | 0 |  | 
30 | O=C1Nc2ccc([N+](=O)[O-])cc2/C1=N/N=C1/SCC(=O)N1C1CCCCC1 | 0 |  | 
31 | O=C1/C(=N\NC(=S)Nc2ccccc2)c2cc(F)ccc2N1CN1CCOCC1 | 56 |  | 
32 | Cc1ccc(NC(=S)N/N=C2\C(=O)N(CN3CCOCC3)c3ccc([N+](=O)[O-])cc32)cc1 | 92 | > 6.25 | 17 (≈ 37.4 µM)
33 | C=CCNC(=S)N/N=C1\C(=O)Nc2ccc(F)cc21 | 30 |  | 
34 | O=C1/C(=N\NC(=S)NC2CCCCC2)c2cc([N+](=O)[O-])ccc2N1CN1CCOCC1 | 90 | 6.25 (≈ 14 µM) | 
35 | CNC(=S)N/N=C1\C(=O)N(CN2CCOCC2)c2ccc(F)cc21 | 12 |  | 
36 | O=C1Nc2ccc(F)cc2/C1=N/NC(=S)Nc1ccc([N+](=O)[O-])cc1 | 31 |  | 
37 | O=C1/C(=N\NC(=S)NCc2ccccc2)c2cc(F)ccc2N1CN1CCOCC1 | 0 |  | 
38 | O=C1Nc2ccc(F)cc2/C1=N/NC(=S)Nc1ccc(F)cc1 | 58 |  | 
39 | Cc1ccc(N2C(=O)CS/C2=N/N=C2\C(=O)Nc3ccc([N+](=O)[O-])cc32)cc1 | 17 |  | 
40 | CCCCNC(=S)N/N=C1\C(=O)Nc2ccc([N+](=O)[O-])cc21 | 42 |  | 
41 | O=C1Nc2ccc([N+](=O)[O-])cc2/C1=N/N=C1/SCC(=O)N1c1ccc(F)cc1 | 0 |  | 
42 | O=C1/C(=N\NC(=S)Nc2ccccc2)c2cc(F)ccc2N1CN1CCCCC1 | 45 |  | 
43 | O=C1Nc2ccc(F)cc2/C1=N/NC(=S)Nc1ccccc1 | 61 |  | 
44 | O=C1/C(=N\NC(=S)NC2CCCCC2)c2cc([N+](=O)[O-])ccc2N1CN1CCCCC1 | 87 |  | 
45 | CC1S/C(=N/N=C2\C(=O)Nc3ccc([N+](=O)[O-])cc32)N(c2ccccc2)C1=O (configuration not stated) | 9 |  | 
46 | O=C1/C(=N\NC(=S)NCc2ccccc2)c2cc(F)ccc2N1CN1CCCCC1 | 3 |  | 

Row | SMILES | inhibition of growth at 6.25 µg/mL [1] [%] | MIC [2] [µg/mL] | IC50 (Vero) [µg/mL]
47 | CCNC(=S)N/N=C1\C(=O)N(CN2CCOCC2)c2ccc(F)cc21 | 1 |  | 
48 | CCCCN1C(=O)CS/C1=N/N=C1\C(=O)Nc2ccc([N+](=O)[O-])cc21 | 0 |  | 
49 | Cc1ccc(NC(=S)N/N=C2\C(=O)Nc3ccc(F)cc32)cc1 | 36 |  | 
50 | O=C1Nc2ccc([N+](=O)[O-])cc2/C1=N/NC(=S)Nc1ccc(Cl)cc1 | 75 |  | 
51 | O=C1/C(=N\NC(=S)Nc2ccc(F)cc2)c2cc(F)ccc2N1CN1CCOCC1 | 48 |  | 
52 | CCCCNC(=S)N/N=C1\C(=O)N(CN2CCOCC2)c2ccc(F)cc21 | 34 |  | 
53 | O=C1Nc2ccc([N+](=O)[O-])cc2/C1=N/NC(=S)Nc1ccc(F)cc1 | 24 |  | 
54 | O=C1/C(=N\NC(=S)NC2CCCCC2)c2cc(F)ccc2N1CN1CCOCC1 | 33 |  | 
55 | O=C1/C(=N\NC(=S)Nc2ccc(Cl)cc2)c2cc([N+](=O)[O-])ccc2N1CN1CCCCC1 | 54 |  | 
56 | C=CCNC(=S)N/N=C1\C(=O)N(CN2CCCCC2)c2ccc([N+](=O)[O-])cc21 | 22 |  | 
57 | C=CCNC(=S)N/N=C1\C(=O)N(CN2CCOCC2)c2ccc(F)cc21 | 24 |  | 
58 | CCNC(=S)N/N=C1\C(=O)N(CN2CCCCC2)c2ccc(F)cc21 | 2 |  | 
59 | CC1S/C(=N/N=C2\C(=O)Nc3ccc([N+](=O)[O-])cc32)N(c2ccc(Br)cc2)C1=O (configuration not stated) | 3 |  | 
60 | CC1S/C(=N/N=C2\C(=O)Nc3ccc([N+](=O)[O-])cc32)N(c2ccc(F)cc2)C1=O (configuration not stated) | 5 |  | 
61 | O=C1Nc2ccc([N+](=O)[O-])cc2/C1=N/NC(=S)Nc1ccccc1 | 33 |  | 
62 | Cc1ccc(N2C(=O)C(C)S/C2=N/N=C2\C(=O)Nc3ccc([N+](=O)[O-])cc32)cc1 (configuration not stated) | 0 |  | 
63 | O=C1/C(=N\NC(=S)Nc2ccc(Cl)cc2)c2cc([N+](=O)[O-])ccc2N1CN1CCOCC1 | 65 |  | 
64 | O=C1Nc2ccc([N+](=O)[O-])cc2/C1=N/NC(=S)Nc1ccc(Br)cc1 | 90 | > 6.25 | 2.59 (≈ 6.16 µM)
65 | O=C1/C(=N\NC(=S)Nc2ccccc2)c2cc([N+](=O)[O-])ccc2N1CN1CCCCC1 | 31 |  | 
66 | Cc1ccc(NC(=S)N/N=C2\C(=O)N(CN3CCCCC3)c3ccc(F)cc32)cc1 | 51 |  | 
67 | C=CCNC(=S)N/N=C1\C(=O)N(CN2CCCCC2)c2ccc(F)cc21 | 20 |  | 
